We go through 71 compounds from ChEMBL document CHEMBL3507680, “University of Dundee, Gates Library screen for HepG2 cell viability”.

The nature of the series: Human HepG2 cell viability assay in 384 well format. The arrangement: dose 125 nL, time 70.5 hour; cytotoxicity at 70.5 h: concentration not given beside the values. In kind it is toxicity, cell-based. The note with it: HepG2 cells, read-out: Inhibition.
For `COc1ccc(CC2(CO)CCN(c3cc(C#N)ccn3)CC2)cc1`, the cytotoxicity at 70.5 h was -3.42%.
Turning to `CCc1noc(CN(CC)C(=O)c2ccc3ncsc3c2)n1`, the cytotoxicity at 70.5 h turned out to be 4.54%.
For the compound `C[C@@H]1CN(C(=O)c2ccc(=O)[nH]c2)CC[C@@]1(O)C1CCOCC1`, the cytotoxicity at 70.5 h came out at 1.36%.
Take `CCOCCNc1nc(-c2ccncc2)nc2c1CCNCC2`: the cytotoxicity at 70.5 h was -4.23%.
The same measure for `COc1cccc(Cn2ncc(N(C)CCc3ccccc3)cc2=O)c1`: -6.35%; for `Cc1oncc1S(=O)(=O)N1CCCC(C)(Cc2ccc3c(c2)OCO3)C1` (stereo unspecified): 14.3%.
As to `CC(C)CCC1=NC2(CCN(C(=O)CN3CCCC3=O)CC2)C(=O)N1`, the cytotoxicity at 70.5 h was -5.52%.
With `O=S(=O)(CC1CC1)c1ncc(CN2CCSCC2)n1CC1CCCO1` (stereo unspecified), the cytotoxicity at 70.5 h is -6.13%.
Regarding `CCSC(C)c1nc(-c2ccc(C)nn2)no1` (stereo unspecified), the cytotoxicity at 70.5 h stood at 4.73%.
Turning to `CN(C)c1nc(NCCCN2CCc3ccccc32)ncc1F`, the cytotoxicity at 70.5 h was 38.5%.
Then `CN(Cc1nc(Cc2cccc(C(F)(F)F)c2)no1)C1CCOCC1`, with -5.63%.
`Cc1cc(C)nc(N2CCC(c3nnc(CN(C)C)n3C3CC3)CC2)n1`: the cytotoxicity at 70.5 h was -5.18%.
In the case of `CCOc1cc2c(cc1CN1CCC3(CCCNC3=O)C1)CCC2` (stereo unspecified), the cytotoxicity at 70.5 h was 30%.
The same measure for `CCCc1cc(NCc2ccc(CO)cc2)n2nccc2n1`: 1.98%; for `CCc1c(C)nn(CCN2CC3(CCOC3)CCC2=O)c1C` (stereo unspecified): -6.21%.
For the compound `CCOC(=O)C1CCCN(Cc2c[nH]nc2-c2cc3ccccc3o2)C1` (stereo unspecified), the cytotoxicity at 70.5 h is 18.3%.
For `CCN(C)S(=O)(=O)N1CCCC(CO)(CC=C(C)C)C1` (stereo unspecified), the cytotoxicity at 70.5 h is -2.99%.
Then `Cc1noc(-c2ccc(N3CCC(C(=O)N4CCCC4)CC3)nc2)n1`, with -1.82%; and `O=C1CCCN1CCCC(=O)N1CCCCC1c1ccc(F)cc1` (stereo unspecified), with 2.07%; and `CN1CCN(Cc2noc(-c3cc(-c4ccc(F)cc4)n[nH]3)n2)CC1`, with 31.6%.
Regarding `CCc1cnc(C)nc1N1CCS(=O)(=O)CC1`, the cytotoxicity at 70.5 h was -7.02%.
For `O=C(c1ccc[nH]1)N1CCc2cc(S(=O)(=O)N3CCOCC3)ccc2C1`, the cytotoxicity at 70.5 h turned out to be 50.8%.
`Cc1ccc(C2(O)CCN(C(=O)c3sccc3S(N)(=O)=O)CC2)nc1`: the cytotoxicity at 70.5 h was -4.05%.
Regarding `CCn1c(C)nnc1SCCNC(=O)c1cccc2ccnn12`, the cytotoxicity at 70.5 h turned out to be 14.1%.
Take `O=C(c1cnn[nH]1)N(Cc1ccncc1)CC1CCCO1` (stereo unspecified): the cytotoxicity at 70.5 h was -0.844%.
The same measure for `O=c1[nH]c(-c2ccc(Cl)cc2)nc2c1CCNC2`: 12.1%; for `O=C(C1NCCc2[nH]cnc21)N1CCC2(CC1)CNc1ccccc12` (stereo unspecified): -11.9%.
Then `CCCC(=O)Nc1cc2c(cc1OC)NC(=O)CC2c1ccc(CC)o1` (stereo unspecified), with 22.1%.
As to `CC(C)c1ccc(CN2CCC(CNS(=O)(=O)C3CC3)C2)cc1` (stereo unspecified), the cytotoxicity at 70.5 h was -3.87%.
As for `COc1cccc2c1OCC(CNC(=O)CN(C)C1CCCC1)C2` (stereo unspecified), the cytotoxicity at 70.5 h was determined as 6.99%.
`CN(Cc1nc(Cc2ccccc2F)no1)CC1Cc2ccccc2O1` (stereo unspecified): the cytotoxicity at 70.5 h came to 8.45%.
Turning to `Cn1cc(CN(CC2(O)CNCCOC2)C2CCCCC2)cn1` (stereo unspecified), the cytotoxicity at 70.5 h is -8.06%.
With `CN(CC1CCN(c2ccccc2)C1)c1ccc(Cn2ccnc2)cn1` (stereo unspecified), the cytotoxicity at 70.5 h was -13.6%.
As for `Cc1ccn2cc(C(=O)N3CCCC(Cn4cc(CO)nn4)C3)nc2c1` (stereo unspecified), the cytotoxicity at 70.5 h is 17.5%.
The same measure for `CCC1(O)CCCN(c2nc(C(C)(C)C)nc3c2cnn3C)C1` (stereo unspecified): -9.12%.
With `COc1cccc(N2CCN(C(=O)C(OC)c3ccccc3)CC2=O)c1` (stereo unspecified), the cytotoxicity at 70.5 h was -7.1%.
In the case of `CN(Cc1ccccc1)C(=O)CCN1CCC2(CC1)[C@H](O)C[C@@H]2O`, the cytotoxicity at 70.5 h was -8.64%.
On to `CCCc1nnc(NCCCn2nc(C)c(Cl)c2C)o1`, for which the cytotoxicity at 70.5 h was -7.76%.
Consider `CCn1nc(C)c(CN2CCCC(c3ccc(C(=O)O)cc3)C2)c1C` (stereo unspecified), for which the cytotoxicity at 70.5 h worked out at 24.4%.
Regarding `N[C@H]1CN(C(=O)c2cnc3cc(Cl)ccc3c2O)C[C@@H]1C1CC1`, the cytotoxicity at 70.5 h came out at 5.93%.
As for `CC(CN1CCC2(CC1)N=C(c1cccnc1)NC2=O)c1ccccc1` (stereo unspecified), the cytotoxicity at 70.5 h was -7.3%.
For the compound `COC[C@@]12CC[C@@H](N3CCOCC3)C[C@H]1CCN(c1cc(C)ccn1)C2`, the cytotoxicity at 70.5 h was -1.61%.
As to `Cc1cccnc1CC(C)N(C)Cc1cccs1` (stereo unspecified), the cytotoxicity at 70.5 h was -13.2%.
Regarding `Cn1ccnc1-c1ccc(NCC2COCCO2)nn1` (stereo unspecified), the cytotoxicity at 70.5 h was -5.53%.
With `CN1CCN(CCC(F)(F)C(F)F)CC12CCNC(=O)CC2` (stereo unspecified), the cytotoxicity at 70.5 h stood at 4.17%.
As to `NC1(C(=O)NCCC2CN(Cc3ccco3)CCO2)CCCC1` (stereo unspecified), the cytotoxicity at 70.5 h was determined as 29.8%.
The same measure for `Cc1cc(C)c2c(N3CCC(O)(Cn4ccnc4)CC3)ncnc2n1`: -0.18%; for `O=C(NCC(F)(F)F)C1CCC(=O)N(C2CCCC2)C1` (stereo unspecified): -3.8%.
Consider `CNc1ncc(CN(C)C(=O)[C@@]23CNC[C@@H]2CN(C2CCCC2)C3)cn1`, for which the cytotoxicity at 70.5 h was -4.91%.
The same measure for `COc1ccc(F)cc1C(=O)C1CCCN(Cc2ccc(C)s2)C1` (stereo unspecified): -12.9%; for `O=C(NCCN1CCOC1=O)c1ccc2sccc2c1`: -4.67%.
For `CC(C)[C@@H](N)C(=O)NCc1cccnc1N1CCc2ccccc2C1`, the cytotoxicity at 70.5 h is -4.97%.
In the case of `COc1cccc2c(=O)n(Cc3nc(C)cc(O)n3)cnc12`, the cytotoxicity at 70.5 h was -12.5%.
For `CC(C)c1ccc(NC2CCCN(Cc3ccncc3)C2)cc1` (stereo unspecified), the cytotoxicity at 70.5 h worked out at 0.778%.
For `Cc1cc(C)c(C(=O)N2CCOC(CCN(C)C)C2)o1` (stereo unspecified), the cytotoxicity at 70.5 h is -14.2%.
`Cc1nnsc1C(=O)NCc1cccnc1N(C)C`: the cytotoxicity at 70.5 h was -3.02%.
Consider `CCc1c(C)nn(CC(=O)NC(C)c2n[nH]c(C)n2)c1C` (stereo unspecified), for which the cytotoxicity at 70.5 h was determined as 16.1%.
Take `COc1ccc(F)c(CN2CCCC3(CCN(S(C)(=O)=O)C3)C2)c1` (stereo unspecified): the cytotoxicity at 70.5 h was -10.2%.
`CCCc1nc(C)cc(N2CCC3(CCC(=O)N(C4CC4)C3)CC2)n1`: the cytotoxicity at 70.5 h was -5.2%.
`CN1CC2(CCN(C(=O)c3ccc(-n4cccn4)cc3Cl)C2)OC1=O` (stereo unspecified): the cytotoxicity at 70.5 h was -2.7%.
Consider `CCCc1nc(CNc2nc(C)nc3oc(C)nc23)cs1`, for which the cytotoxicity at 70.5 h is -6.15%.
Consider `CCn1nc(CC(C)C)cc1C(=O)NCC(F)(F)F`, for which the cytotoxicity at 70.5 h was 12.8%.
As to `Cc1nccn1CCCN1CCC(c2nccn2CC2CCC2)CC1`, the cytotoxicity at 70.5 h is -3.77%.
With `Cc1cc(N2CC[C@H](O)C2)n2nc(C)c(C)c2n1`, the cytotoxicity at 70.5 h was -1.97%.
Take `O=C(Cc1cccc(O)c1)N1CCCC(OCc2cccnc2)C1` (stereo unspecified): the cytotoxicity at 70.5 h was -7.55%.
In the case of `CC(C)N1CCC(CC(=O)NC[C@H]2CCc3ccccc3O2)CC1`, the cytotoxicity at 70.5 h is -11.9%.
As for `Cc1nn(C)c2nc(NC3CCNCC3)sc12`, the cytotoxicity at 70.5 h came out at 1.8%.
Turning to `CN(CC1COCCO1)c1ncnc2cc(F)ccc12` (stereo unspecified), the cytotoxicity at 70.5 h is 19%.
`CCCn1ccnc1CNC(=O)C1COc2cc(OC)ccc2C1` (stereo unspecified): the cytotoxicity at 70.5 h was -5.58%.
Then `Cc1nc(CCNC(=O)C2CC(=O)N(C(C)C)C2)sc1C` (stereo unspecified), with -10.3%.
With `CCOCCn1c(=O)n(Cc2ccccc2F)c2cc(C(=O)O)cnc21`, the cytotoxicity at 70.5 h amounted to 11.9%.
